{"source": "paper PMC9352670", "about": "(2022)", "experiment_in_all_cases": "microscale thermophoresis", "key": {"[1]": {"system": "Dm-HS-1 TGA ∆ s.c. (DNA, aptamer, as Dm-HS-1 but no side-chain at 34: fluorophenyl at 19; allylamine at 22,25,37; alcohol at 28,49; phenol at 31,46; cyclopentyl at 40; cyclopropyl at 43,58; imidazole at 52,55,61) GAAAGCAGGACTGGAGATCGATTCTGGTGCTGTTGATCTCCGCCATTGTGCTCCTACCCTTCACAGACCGAACTAGAGCTT", "settings": "5 mM KCl, 1 mM MgCl2, 1 mM CaCl2 added; HBS-P+ buffer, 25 °C"}, "[2]": {"system": "Dm-reference-based-random-after-selection-2 (DNA, other, HFNAP: side-chain on 5' nucleobase of each coding trinucleotide, positions 19,22,25,...,61 (codon key Figure 1B)) GAAAGCAGGACTGGAGATTTGTGCCCCTGATGCCCATGGTCCCTCCGCTGCTAACGTTTGCCTCAGACCGAACTAGAGCTT", "settings": "5 mM KCl, 1 mM MgCl2, 1 mM CaCl2 added; HBS-P+ buffer, 25 °C"}, "[3]": {"system": "Dm-CCS-1 (DNA, aptamer, HFNAP: side-chain on 5' nucleobase of each coding trinucleotide, positions 19,22,25,...,61 (codon key Figure 1B)) GAAAGCAGGACTGGAGATCCTTAATGGCAGCTCCAGCCCTAACCCTGCTGCTGCCTCTGCTGTCAGACCGAACTAGAGCTT", "settings": "5 mM KCl, 1 mM MgCl2, 1 mM CaCl2 added; HBS-P+ buffer, 25 °C"}, "[4]": {"system": "Dm-HS-4 (DNA, aptamer, HFNAP: side-chain on 5' nucleobase of each coding trinucleotide, positions 19,22,25,...,61 (codon key Figure 1B)) GAAAGCAGGACTGGAGATCGATTCTGGTGCTGTTGATCTCCGCCATTGTGCTCCTACCCTTCGCAGACCGAACTAGAGCTT", "settings": "5 mM KCl, 1 mM MgCl2, 1 mM CaCl2 added; HBS-P+ buffer, 25 °C"}, "[5]": {"system": "Dm-HS-2 (DNA, aptamer, HFNAP: side-chain on 5' nucleobase of each coding trinucleotide, positions 19,22,25,...,61 (codon key Figure 1B)) GAAAGCAGGACTGGAGATCTATGGTCGCATCGTTGACCCTTGTCCTGCCCCTGTCTCTCTCAACAGACCGAACTAGAGCTT", "settings": "5 mM KCl, 1 mM MgCl2, 1 mM CaCl2 added; HBS-P+ buffer, 25 °C"}, "[6]": {"system": "Dm-HS-10 ∆ s.c. (DNA, aptamer, none (no side-chains)) GAAAGCAGGACTGGAGATCCTTCGCATCGGCTTTCTCCCTGTCACCCCTGTTCCCCTTGACCGCAGACCGAACTAGAGCTT", "settings": "5 mM KCl, 1 mM MgCl2, 1 mM CaCl2 added; HBS-P+ buffer, 25 °C"}, "[7]": {"system": "Dm-HS-5 (DNA, aptamer, HFNAP: side-chain on 5' nucleobase of each coding trinucleotide, positions 19,22,25,...,61 (codon key Figure 1B)) GAAAGCAGGACTGGAGATCGATTCTGGTGCTGTTGATCTCCGCCATTGTGCTCCTGCCCTTCACAGACCGAACTAGAGCTT", "settings": "5 mM KCl, 1 mM MgCl2, 1 mM CaCl2 added; HBS-P+ buffer, 25 °C"}, "[8]": {"system": "Dm-HS-6 (DNA, aptamer, HFNAP: side-chain on 5' nucleobase of each coding trinucleotide, positions 19,22,25,...,61 (codon key Figure 1B)) GAAAGCAGGACTGGAGATTGGTAGTAACTGCTGTCCTGCTAATCATGCCGTTCACGCTGACCTCAGACCGAACTAGAGCTT", "settings": "5 mM KCl, 1 mM MgCl2, 1 mM CaCl2 added; HBS-P+ buffer, 25 °C"}, "[9]": {"system": "Dm-HS-1 CCA ∆ s.c. (DNA, aptamer, as Dm-HS-1 but no side-chain at 43: fluorophenyl at 19; allylamine at 22,25,37; alcohol at 28,34,49; phenol at 31,46; cyclopentyl at 40; cyclopropyl at 58; imidazole at 52,55,61) GAAAGCAGGACTGGAGATCGATTCTGGTGCTGTTGATCTCCGCCATTGTGCTCCTACCCTTCACAGACCGAACTAGAGCTT", "settings": "5 mM KCl, 1 mM MgCl2, 1 mM CaCl2 added; HBS-P+ buffer, 25 °C"}, "[10]": {"system": "Dm-reference-based-random-after-selection-5 (DNA, other, HFNAP: side-chain on 5' nucleobase of each coding trinucleotide, positions 19,22,25,...,61 (codon key Figure 1B)) GAAAGCAGGACTGGAGATCATTTCCTCCCTTATCGATAATCTCCTTTTTTATACTGCTTTTTCCAGACCGAACTAGAGCTT", "settings": "5 mM KCl, 1 mM MgCl2, 1 mM CaCl2 added; HBS-P+ buffer, 25 °C"}, "[11]": {"system": "Dm-HS-9 ∆ s.c. (DNA, aptamer, none (no side-chains)) GAAAGCAGGACTGGAGATCGATTATTGTGATTTTGATCTCCCCCATATCCCCTTCCCTACTCGCAGACCGAACTAGAGCTT", "settings": "5 mM KCl, 1 mM MgCl2, 1 mM CaCl2 added; HBS-P+ buffer, 25 °C"}, "[12]": {"system": "Dm-HS-7 ∆ s.c. (DNA, aptamer, none (no side-chains)) GAAAGCAGGACTGGAGATCGATTGCAGTTACGTTGCTAGTCCCCTTGATCACCTCCGTCACCTCAGACCGAACTAGAGCTT", "settings": "5 mM KCl, 1 mM MgCl2, 1 mM CaCl2 added; HBS-P+ buffer, 25 °C"}, "[13]": {"system": "Dm-HS-1 TGC ∆ s.c. (DNA, aptamer, no side-chain at 28 and 49 (codons 4 and 11 TGC, alcohol 2x); others as HFNAP: fluorophenyl at 19; allylamine at 22, 25, 37; alcohol at 34; phenol at 31, 46; cyclopentyl at 40; cyclopropyl at 43, 58; imidazole at 52, 55, 61) GAAAGCAGGACTGGAGATCGATTCTGGTGCTGTTGATCTCCGCCATTGTGCTCCTACCCTTCACAGACCGAACTAGAGCTT", "settings": "5 mM KCl, 1 mM MgCl2, 1 mM CaCl2 added to HBS-P+; HBS-P+ buffer, 25 °C"}, "[14]": {"system": "Dm-HS-4 ∆ s.c. (DNA, aptamer, none (no side-chains)) GAAAGCAGGACTGGAGATCGATTCTGGTGCTGTTGATCTCCGCCATTGTGCTCCTACCCTTCGCAGACCGAACTAGAGCTT", "settings": "5 mM KCl, 1 mM MgCl2, 1 mM CaCl2 added; HBS-P+ buffer, 25 °C"}, "[15]": {"system": "Dm-HS-1 TCA ∆ s.c. (DNA, aptamer, no side-chain at 61 (codon 15 TCA); others as HFNAP: fluorophenyl at 19; allylamine at 22, 25, 37; alcohol at 28, 34, 49; phenol at 31, 46; cyclopentyl at 40; cyclopropyl at 43, 58; imidazole at 52, 55) GAAAGCAGGACTGGAGATCGATTCTGGTGCTGTTGATCTCCGCCATTGTGCTCCTACCCTTCACAGACCGAACTAGAGCTT", "settings": "5 mM KCl, 1 mM MgCl2, 1 mM CaCl2 added to HBS-P+; HBS-P+ buffer, 25 °C"}}, "data": [{"molecule": "COc1cccc2c1C(=O)c1c(O)c3c(c(O)c1C2=O)C[C@@](O)(C(C)=O)C[C@@H]3O[C@H]1C[C@H](N)[C@H](O)[C@H](C)O1", "values": [{"measurement": "Kd", "setting": "[1]", "result": "0.0468 ± 0.0048", "unit": "µM"}, {"measurement": "Kd", "setting": "[2]", "result": "114.4 ± 7.4", "unit": "µM"}, {"measurement": "Kd", "setting": "[3]", "result": "0.0167 ± 0.006", "unit": "µM"}, {"measurement": "Kd", "setting": "[4]", "result": "0.00205 ± 0.00065", "unit": "µM"}, {"measurement": "Kd", "setting": "[5]", "result": "0.00477 ± 0.001", "unit": "µM"}, {"measurement": "Kd ∆ side-chains", "setting": "[6]", "result": "0.713 ± 0.028", "unit": "µM"}, {"measurement": "Kd", "setting": "[7]", "result": "0.00616 ± 0.0034", "unit": "µM"}, {"measurement": "Kd", "setting": "[8]", "result": "0.02686 ± 0.0042", "unit": "µM"}, {"measurement": "Kd", "setting": "[9]", "result": "0.1588 ± 0.0142", "unit": "µM"}, {"measurement": "Kd", "setting": "[10]", "result": "119.7 ± 9.3", "unit": "µM"}, {"measurement": "Kd ∆ side-chains", "setting": "[11]", "result": "5.00 ± 0.14", "unit": "µM"}, {"measurement": "Kd ∆ side-chains", "setting": "[12]", "result": "2.49 ± 0.12", "unit": "µM"}, {"measurement": "Kd", "setting": "[13]", "result": "0.0203 ± 0.0044", "unit": "µM"}, {"measurement": "Kd ∆ side-chains", "setting": "[14]", "result": "1.81 ± 0.057", "unit": "µM"}, {"measurement": "Kd", "setting": "[15]", "result": "0.0101 ± 0.0016", "unit": "µM"}]}]}
